As usually defined, the IC50 is the concentration needed to halve the response being measured. The solubility is the dissolved amount per volume that the medium holds.

Converted amounts (≈) assume the structure as drawn.

From patent publication US20100061982A1, “3-SUBSTITUTED-1H-INDOLE, 3-SUBSTITUTED-1H-PYRROLO[2,3-B]PYRIDINE AND 3-SUBSTITUTED-1H-PYRROLO[3,2-B]PYRIDINE COMPOUNDS, THEIR USE AS MTOR KINASE AND PI3 KINASE INHIBITORS, AND THEIR SYNTHESES” (priority 2008, published 2010) come the findings set out here.

Data set [1] can be described thus: PAMPA permeability pH 7.4. In general terms: PAMPA measures passive passage across an artificial lipid membrane.
A short description of data set [2]: Microsome Stability (15 min), nude mouse. The format is in vitro ADME. Particulars: nude, mouse, microsomes.
A short description of data set [3]: Microsome Stability (15 min), human. The format is in vitro ADME. The settings on record: microsomes.
Data set [4] addresses mTOR (Homo sapiens, UniProt P42345). The data set is described as follows: mTOR Enzyme Assay (DELFIA, purified enzyme). Details: FLAG. Particulars: read-out: mTOR Mean IC50. It is filed as biochemical.
Data set [5] in a line: Buffer Stability (37° C.).
A short description of data set [6]: In vivo blood/plasma and tumor levels of prodrug and metabolites after 50 mg, kg po. Particulars: 50 mg.
Data set [7] can be described thus: Microsome Stability (15 min), rat. The format is in vitro ADME. The settings on record: microsomes.
Data set [8] is described as follows: CACO2 permeability a-b/b-a. It is filed as in vitro ADME. Particulars: human, Caco-2. Background: Caco-2 cells form a polarised layer with tight junctions and transporters.
A short description of data set [9]: Plasma Stability (37° C.), rat.
Data set [10] is described as follows: Plasma Stability (37° C.), nude mouse.
In data set [11] the target is PI3K alpha (Homo sapiens, UniProt P42336). The data set is described as follows: PI3K-alpha Fluorescence Polarization Assay. Particulars: read-out: PI3K alpha Mean IC50. The format is biochemical.
Data set [12] in a line: Solubility pH 7.4. The settings on record: pH 7.4, aqueous buffer.
[13] abbreviates: Phase I (NADPH), read-out: Microsome Stability (15 min) T ½ Phase I nude mouse.
Setting [14] is: Phase I (NADPH), read-out: Microsome Stability (15 min) T ½ Phase I human.
Where [15] appears, read: Phase I (NADPH), read-out: Microsome Stability (15 min) T ½ Phase I rat.

Chain of PI3K alpha (P42336 whole entry, species assumed): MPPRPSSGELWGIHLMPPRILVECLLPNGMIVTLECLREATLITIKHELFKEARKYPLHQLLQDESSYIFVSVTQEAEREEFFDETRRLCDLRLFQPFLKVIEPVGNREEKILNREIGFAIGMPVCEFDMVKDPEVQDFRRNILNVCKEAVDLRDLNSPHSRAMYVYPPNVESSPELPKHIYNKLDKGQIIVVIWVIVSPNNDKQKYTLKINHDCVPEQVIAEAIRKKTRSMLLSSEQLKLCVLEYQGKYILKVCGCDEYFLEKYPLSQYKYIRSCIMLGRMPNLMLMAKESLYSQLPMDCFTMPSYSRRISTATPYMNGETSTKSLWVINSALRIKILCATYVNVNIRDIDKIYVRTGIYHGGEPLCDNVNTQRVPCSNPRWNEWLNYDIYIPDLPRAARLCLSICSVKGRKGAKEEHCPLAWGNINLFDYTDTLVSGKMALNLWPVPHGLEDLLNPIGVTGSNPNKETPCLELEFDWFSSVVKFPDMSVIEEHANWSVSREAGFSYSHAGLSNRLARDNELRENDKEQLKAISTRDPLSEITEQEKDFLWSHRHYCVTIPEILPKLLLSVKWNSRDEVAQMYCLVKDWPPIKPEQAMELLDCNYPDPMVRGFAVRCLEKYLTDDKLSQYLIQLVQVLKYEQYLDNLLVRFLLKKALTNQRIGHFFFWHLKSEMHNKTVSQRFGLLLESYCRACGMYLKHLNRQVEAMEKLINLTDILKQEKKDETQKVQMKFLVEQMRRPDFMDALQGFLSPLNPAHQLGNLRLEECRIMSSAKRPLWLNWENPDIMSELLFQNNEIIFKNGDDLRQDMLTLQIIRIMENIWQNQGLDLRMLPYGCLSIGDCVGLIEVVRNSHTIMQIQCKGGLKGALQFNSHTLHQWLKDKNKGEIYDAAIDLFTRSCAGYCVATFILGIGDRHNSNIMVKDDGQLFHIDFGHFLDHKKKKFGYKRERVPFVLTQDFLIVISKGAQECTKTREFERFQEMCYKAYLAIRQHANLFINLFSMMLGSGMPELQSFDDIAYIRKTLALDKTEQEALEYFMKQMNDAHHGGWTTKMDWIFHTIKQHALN
Chain of PI3K alpha (P27986 whole entry partner, species assumed): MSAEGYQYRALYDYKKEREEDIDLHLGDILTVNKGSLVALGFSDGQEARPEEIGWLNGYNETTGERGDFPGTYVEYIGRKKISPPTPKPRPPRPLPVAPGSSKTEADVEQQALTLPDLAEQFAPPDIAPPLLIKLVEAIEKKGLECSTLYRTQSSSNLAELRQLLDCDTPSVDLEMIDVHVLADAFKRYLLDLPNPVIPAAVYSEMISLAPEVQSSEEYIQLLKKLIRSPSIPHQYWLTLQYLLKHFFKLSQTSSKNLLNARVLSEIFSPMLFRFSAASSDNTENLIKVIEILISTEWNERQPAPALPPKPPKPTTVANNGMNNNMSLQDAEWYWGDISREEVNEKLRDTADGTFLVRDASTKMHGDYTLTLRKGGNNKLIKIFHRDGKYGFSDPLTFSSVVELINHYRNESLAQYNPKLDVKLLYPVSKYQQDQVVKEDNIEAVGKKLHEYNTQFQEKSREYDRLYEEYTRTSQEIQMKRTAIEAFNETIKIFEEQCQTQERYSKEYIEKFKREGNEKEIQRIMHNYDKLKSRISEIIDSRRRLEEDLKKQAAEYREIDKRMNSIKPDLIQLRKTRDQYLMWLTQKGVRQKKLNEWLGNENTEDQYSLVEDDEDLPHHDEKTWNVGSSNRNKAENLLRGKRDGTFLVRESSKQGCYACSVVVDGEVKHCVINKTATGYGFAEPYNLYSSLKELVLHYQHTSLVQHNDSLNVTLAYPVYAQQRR

Take `COc1ccc2[nH]c(-c3ccccc3)c(C=C3Oc4cc(O)cc(O)c4C3=O)c2c1` [4,6-dihydroxy-2-[(5-methoxy-2-phenyl-1H-indol-3-yl)methylene]-1-benzofuran-3(2H)-one]: in data set [1], the “PAMPA Pe” value is 0 10e−6 cm/s. Besides, the half-life in data set [2] (setting [13]) was found to be 29 min. For the same molecule, in data set [2] (value after the slash in Table VIc, read-out: Microsome Stability (15 min) T ½ nude mouse, second value of cell), the half-life amounted to 5 min. Moreover, the half-life in data set [3] (setting [14]) is 24 min. Moreover, the half-life in data set [3] (value after the slash in Table VIc, read-out: Microsome Stability (15 min) T ½ human, second value of cell) amounted to 5 min. Also, the IC50 in data set [4] was 80 nM. Also, in data set [5], the “Buffer Stability (37° C.) % Remaining (at 16-23 hours) SGF” value is 95%, the “Buffer Stability (37° C.) % Remaining (at 16-23 hours) SIF” value was determined as 77%, the “Buffer Stability (37° C.) % Remaining (at 16-23 hours) pH 1” value is 97% and the “Buffer Stability (37° C.) % Remaining (at 16-23 hours) pH 4.5” value is on record as 96%. In [5], the “Buffer Stability (37° C.) % Remaining (at 16-23 hours) pH 6.6” value is reported as 83%, the “Buffer Stability (37° C.) % Remaining (at 16-23 hours) pH 7.4” value was found to be 68% and the “Buffer Stability (37° C.) % Remaining (at 16-23 hours) pH 9” value turned out to be 72%. Besides, the “plasma prodrug, Dosed @ 50 mg, kg po (precursor phenolic compound dosed)” value in data set [6] (1 h conc.) is “bql, bql*”. Moreover, in data set [6] (4 h conc.), the “plasma prodrug, Dosed @ 50 mg, kg po (precursor phenolic compound dosed)” value was “bql, bql*”. In addition, in [7] (setting [15]), the half-life is > 30 min. For the same molecule, the half-life in [7] (value after the slash in Table VIc, read-out: Microsome Stability (15 min) T ½ rat, second value of cell) came to 5 min. For the same molecule, in data set [8] (a − b (first value of cell), read-out: CACO2 Pe a − b), the Papp A→B is 1.25 ×10⁻⁶ cm/s. For the same molecule, the Papp B→A in data set [8] (b − a (second value of cell), read-out: CACO2 Pe b − a) came out at 6.65 ×10⁻⁶ cm/s.

Turning to `COc1ccc2[nH]c(-c3ccccc3)c(/C=C3\Oc4cc(OC(C)=O)cc(OC(C)=O)c4C3=O)c2c1` [Example 3, (2Z)-2-[(5-methoxy-2-phenyl-1H-indol-3-yl)methylene]-3-oxo-2,3-dihydro-1-benzofuran-4,6-diyl diacetate], the “PAMPA Pe” value in data set [1] is recorded as 0 10e−6 cm/s. In data set [9], the “Plasma Stability (37° C.) % Remaining (3-3.5 hours) rat” value is 42%. For the same molecule, the half-life in data set [2] (setting [13]) was found to be 9 min. The “Plasma Stability (37° C.) % Remaining (3-3.5 hours) nude mouse” value in [10] was 34%. For the same molecule, in data set [3] (setting [14]), the half-life came to 12 min. Further, in [5], the “Buffer Stability (37° C.) % Remaining (at 16-23 hours) SGF” value was determined as 66%, the “Buffer Stability (37° C.) % Remaining (at 16-23 hours) SIF” value came out at 0%, the “Buffer Stability (37° C.) % Remaining (at 16-23 hours) pH 1” value turned out to be 2% and the “Buffer Stability (37° C.) % Remaining (at 16-23 hours) pH 4.5” value is reported as 64%. In data set [5], the “Buffer Stability (37° C.) % Remaining (at 16-23 hours) pH 6.6” value amounted to 0%, the “Buffer Stability (37° C.) % Remaining (at 16-23 hours) pH 7.4” value is 0% and the “Buffer Stability (37° C.) % Remaining (at 16-23 hours) pH 9” value was 0%. In addition, the IC50 in data set [11] came to 2 nM. The half-life in [7] (setting [15]) is > 30 min.

As for `COc1ccc2c(c1)c(/C=C1\Oc3cc(OC(=O)OC(C)C)cc(OC(=O)OC(C)C)c3C1=O)cn2CCCN(C)C` [Example 5, (2Z)-2-({1-[3-(dimethylamino)propyl]-5-methoxy-1H-indol-3-yl}methylene)-3-oxo-2,3-dihydro-1-benzofuran-4,6-diyl diisopropyl biscarbonate], in data set [1], the “PAMPA Pe” value is 0 10e−6 cm/s. Besides, the “Plasma Stability (37° C.) % Remaining (3-3.5 hours) rat” value in [9] is on record as 0%. Also, in data set [2] (setting [13]), the half-life is 3 min. For the same molecule, the “Plasma Stability (37° C.) % Remaining (3-3.5 hours) nude mouse” value in data set [10] was determined as 16%. Further, in data set [3] (setting [14]), the half-life stood at 3 min. The same molecule yielded a solubility in data set [12] of 3 µg/mL (≈ 5.17 µM). In [5], the “Buffer Stability (37° C.) % Remaining (at 16-23 hours) SGF” value was 94%, the “Buffer Stability (37° C.) % Remaining (at 16-23 hours) SIF” value turned out to be 0%, the “Buffer Stability (37° C.) % Remaining (at 16-23 hours) pH 1” value is 95% and the “Buffer Stability (37° C.) % Remaining (at 16-23 hours) pH 4.5” value was determined as 82%. Moreover, in data set [5], the “Buffer Stability (37° C.) % Remaining (at 16-23 hours) pH 6.6” value stood at 63%, the “Buffer Stability (37° C.) % Remaining (at 16-23 hours) pH 7.4” value came to 14% and the “Buffer Stability (37° C.) % Remaining (at 16-23 hours) pH 9” value was determined as 0%. Moreover, the concentration for half-maximal inhibition (IC50) in data set [11] was > 9750 nM. For the same molecule, the half-life in data set [7] (setting [15]) is < 1 min.

For `COc1ccc2[nH]c(-c3ccccc3)c(/C=C3\Oc4cc(OC(=O)OC(C)C)cc(OC(=O)OC(C)C)c4C3=O)c2c1` [Example 7, diisopropyl (2Z)-2-[(5-methoxy-2-phenyl-1H-indol-3-yl)methylene]-3-oxo-2,3-dihydro-1-benzofuran-4,6-diyl biscarbonate], in [1], the “PAMPA Pe” value is on record as 0 10e−6 cm/s. For the same molecule, the “Plasma Stability (37° C.) % Remaining (3-3.5 hours) rat” value in [9] came out at 0%. Besides, the half-life in [2] (setting [13]) was > 30 min. In data set [10], the “Plasma Stability (37° C.) % Remaining (3-3.5 hours) nude mouse” value was determined as 22%. The half-life in [3] (setting [14]) is 5 min. In addition, in data set [5], the “Buffer Stability (37° C.) % Remaining (at 16-23 hours) SGF” value is recorded as 93%, the “Buffer Stability (37° C.) % Remaining (at 16-23 hours) SIF” value is given as 0%, the “Buffer Stability (37° C.) % Remaining (at 16-23 hours) pH 1” value is on record as 94% and the “Buffer Stability (37° C.) % Remaining (at 16-23 hours) pH 4.5” value was determined as 91%. In data set [5], the “Buffer Stability (37° C.) % Remaining (at 16-23 hours) pH 6.6” value is reported as 59%, the “Buffer Stability (37° C.) % Remaining (at 16-23 hours) pH 7.4” value is 16% and the “Buffer Stability (37° C.) % Remaining (at 16-23 hours) pH 9” value was 0%. Moreover, the IC50 in data set [11] is 896 nM. Also, in data set [7] (setting [15]), the half-life amounted to 3 min.

With `COc1ccc2c(c1)c(/C=C1\Oc3cc(OC(=O)CC(C)C)cc(OC(=O)CC(C)C)c3C1=O)cn2CCCN(C)C` [Example 9, (2Z)-2-({1-[3-(dimethylamino)propyl]-5-methoxy-1H-indol-3-yl}methylene)-3-oxo-2,3-dihydro-1-benzofuran-4,6-diyl bis(3-methylbutanoate)], the “PAMPA Pe” value in data set [1] was 0 10e−6 cm/s. The “Plasma Stability (37° C.) % Remaining (3-3.5 hours) rat” value in [9] stood at 0%. Besides, the half-life in [2] (setting [13]) came out at 6 min. The “Plasma Stability (37° C.) % Remaining (3-3.5 hours) nude mouse” value in [10] stood at 8%. Also, in data set [3] (setting [14]), the half-life turned out to be 6 min. In addition, in data set [12], the concentration in solution (solubility) was 1 µg/mL (≈ 1.73 µM). In addition, in [5], the “Buffer Stability (37° C.) % Remaining (at 16-23 hours) SGF” value came to 77%, the “Buffer Stability (37° C.) % Remaining (at 16-23 hours) SIF” value stood at 0%, the “Buffer Stability (37° C.) % Remaining (at 16-23 hours) pH 1” value came to 73% and the “Buffer Stability (37° C.) % Remaining (at 16-23 hours) pH 4.5” value was 66%. In [5], the “Buffer Stability (37° C.) % Remaining (at 16-23 hours) pH 6.6” value is listed as 46%, the “Buffer Stability (37° C.) % Remaining (at 16-23 hours) pH 7.4” value was determined as 0% and the “Buffer Stability (37° C.) % Remaining (at 16-23 hours) pH 9” value turned out to be 0%. Further, the half-inhibitory concentration (IC50) in [11] was > 10000 nM. In addition, the half-life in data set [7] (setting [15]) stood at 4 min.

As for `COc1ccc2[nH]c(-c3ccccc3)c(/C=C3\Oc4cc(OC(=O)C(C)(C)C)cc(OC(=O)C(C)(C)C)c4C3=O)c2c1` [Example 10, (2Z)-2-[(5-methoxy-2-phenyl-1H-indol-3-yl)methylene]-3-oxo-2,3-dihydro-1-benzofuran-4,6-diyl bis(2,2-dimethylpropanoate)], in [1], the “PAMPA Pe” value is 0 10e−6 cm/s. Further, the “Plasma Stability (37° C.) % Remaining (3-3.5 hours) rat” value in data set [9] is reported as 6%. Also, in [10], the “Plasma Stability (37° C.) % Remaining (3-3.5 hours) nude mouse” value stood at 0%. Moreover, in data set [3] (setting [14]), the half-life was found to be 19 min. Also, the solubility in [12] was 2 µg/mL (≈ 3.52 µM). Also, in data set [5], the “Buffer Stability (37° C.) % Remaining (at 16-23 hours) SGF” value amounted to 95%, the “Buffer Stability (37° C.) % Remaining (at 16-23 hours) SIF” value is 0%, the “Buffer Stability (37° C.) % Remaining (at 16-23 hours) pH 1” value is reported as 86% and the “Buffer Stability (37° C.) % Remaining (at 16-23 hours) pH 4.5” value turned out to be 92%. In [5], the “Buffer Stability (37° C.) % Remaining (at 16-23 hours) pH 6.6” value is 72%, the “Buffer Stability (37° C.) % Remaining (at 16-23 hours) pH 7.4” value came out at 44% and the “Buffer Stability (37° C.) % Remaining (at 16-23 hours) pH 9” value is listed as 0%. Besides, the IC50 in data set [11] is 2780 nM. In addition, the half-life in [7] (setting [15]) turned out to be 12 min.
